Entries after “also recorded” stand apart in the source; their conditions may differ.
How the values were obtained:
rat connexin 43 (Cx43) = molecular target: T1, rat connexin 43 (Cx43) (Rattus norvegicus, UniProt P08050); test: Dye-transfer assay, GJIC through connexin 43 (HeLa-Cx43); assay type: cell-based; details: for connexin 43 inhibitory activity: HeLa-Cx43, 20 μM, result in words
T1 construct: expressed in transfected cells; host or cells: HeLa cell subclone HeLa-Cx43 (human uterocervical squamous carcinoma)
T1 sequence (P08050 2-382 limits assumed): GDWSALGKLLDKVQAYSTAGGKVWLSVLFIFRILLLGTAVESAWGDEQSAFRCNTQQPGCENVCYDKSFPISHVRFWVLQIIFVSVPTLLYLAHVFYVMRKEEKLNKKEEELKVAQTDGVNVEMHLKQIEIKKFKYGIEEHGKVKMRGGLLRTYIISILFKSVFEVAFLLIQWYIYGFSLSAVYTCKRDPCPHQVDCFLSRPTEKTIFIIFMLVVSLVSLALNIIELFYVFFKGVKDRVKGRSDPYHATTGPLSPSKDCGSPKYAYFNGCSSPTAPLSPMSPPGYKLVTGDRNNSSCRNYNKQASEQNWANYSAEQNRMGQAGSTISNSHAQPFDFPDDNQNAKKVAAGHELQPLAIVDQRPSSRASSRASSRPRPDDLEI
Method: (§1) Next, with respect to each oleamide derivative synthesized by the method described above, we studied whether each derivative inhibited connexin 26 (in other words, whether each one inhibited the transfer of a substance from one cell to another through a gap junction formed by the connexin 26). The experimental method was the same as that described in International Publication WO 2004/060398. Each gap junction intercellular communication (GJIC) score of each test substance was evaluated by dye-transfer assay.
(§2) In the same manner as in the method described in the above-mentioned publication, human uterocervical squamaous carcinoma cells (HeLa cells) were used for the experiment. More specifically, HeLa cell subclones (HeLa-Cx26 and HeLa-Cx43) were used, and they stably expressed rat connexin 26 (Cx26) and rat connexin 43 (Cx43), respectively. All cells (including those in the examples described later) were incubated in Dulbecco's modified eagle's medium (DMEM) with 10% fetal calf serum (FCS) added.
(§3) A day before the assay, the HeLa-Cx26 and HeLa-Cx43 cells each were suspended individually in DMEM containing 10% FCS. The respective cells were divided to be cultured as donor cells and recipient cells. The recipient cells were cultured in a culture dish with a diameter of 3 cm and were adjusted to yield subconfluent monolayers at the time of assay.
In the assay, first, both the dyes of calcein (gap junction-permeable) and DiI (gap junction-impermeable) were added to the culture of donor cells at concentrations of 10 μM and 2 μM, respectively, and incubated for one hour. Double-labeled donor cells were trypsinized and washed three times with phosphate-buffered saline. Thereafter each single donor cell was overlaid gently on unlabeled recipient cells. It took one hour for the donor cell to settle over a monolayer. […]
In FIG. 2, since the donor cell indicated with a “*” mark contains both the calcein (green fluorescence) and DiI (red fluorescence), it is shown in yellow in the original drawing. […] With such an assay, the GJIC score of each test substance is evaluated as follows.
(§4) That is, the evaluation was made as “0” where no dye-coupling of a donor cell is found, “1” where the dye-coupling of a donor cell to an adjacent recipient cell is found, “2” and “3” in cases where calcein that has been transferred to the adjacent recipient cell is transferred to the second and third adjacent cells in a direction away from the donor cell, respectively, and so on. Also, as shown with arrows in the drawing, the extent of cell dyeing was evaluated with four levels of 0.25, 0.5, 0.75, and 1.0 as intermediate levels.
(§5) Such an assay was carried out three times repeatedly. […] Then the average value and standard deviation of the GJIC scores of the respective test substances were calculated. […]

rat connexin 26 (Cx26) = molecular target: T2, rat connexin 26 (Cx26) (Rattus norvegicus, UniProt P21994); test: Dye-transfer assay, GJIC through connexin 26 (HeLa-Cx26); assay type: cell-based; details: for connexin 26 inhibitory activity: result in words
T2 construct: expressed in transfected cells; host or cells: HeLa cell subclone HeLa-Cx26 (human uterocervical squamous carcinoma)
Method: as §1, §2, §3
In the assay, first, both the dyes of calcein (gap junction-permeable) and DiI (gap junction-impermeable) were added to the culture of donor cells at concentrations of 10 μM and 2 μM, respectively, and incubated for one hour. Double-labeled donor cells were trypsinized and washed three times with phosphate-buffered saline. Thereafter each single donor cell was overlaid gently on unlabeled recipient cells. It took one hour for the donor cell to settle over a monolayer. […] Dye transfer from a donor cell to an adjacent recipient cell through a gap junction was observed.
In order to evaluate the inhibitory activity of each test substance with respect to the dye-coupling, one hour after the donor cells were planted, oleamide and the multimeric oleamide derivatives described above each were dissolved in ethanol, and 10 μL thereof was then added to each culture dish so that the final concentration was 20 μM. For control, ethanol diluted 1000 times was added to a culture dish.
In FIG. 2, since the donor cell indicated with a “*” mark contains both the calcein (green fluorescence) and DiI (red fluorescence), it is shown in yellow in the original drawing. Furthermore, when gap junction-permeable calcein is transferred to a recipient cell through a gap junction by the dye coupling, this cell is shown in green. With such an assay, the GJIC score of each test substance is evaluated as follows.
as §4, §5

Az521 cells [1] = test: Cytotoxicity assay (cell growth inhibitory potential), trypan blue cell count; assay type: cell-based, human; details: Az521 cells in culture, 6-48 hours, FIG. 6
Method: In order to examine the cytotoxicity (cell growth inhibitory potential) of MI-22, approximately 1×10^5 Az521 cells, which were human gastric cancer cells, were plated in each petri dish with a diameter of 3.5 cm and were cultured in the presence or absence (control) of MI-22. Then 6, 12, 24, 36, and 48 hours after the start of culture, the cells in each petri dish were taken off with trypsin-EDTA and then centrifuged. Thereafter the cells were dissolved in 10% FBS-containing DMEM, and then 10 μL of trypan blue was added to 10 μL thereof. After that, the number of cells was counted by the use of a counting chamber. The results are shown in the graphs in FIG. 6. The vertical axis indicates the number of cells, and the horizontal axis indicates the time. The graphs show averages of the results of experiments performed three times.

[2] = Solubility in organic solvent (handling property); assay type: physicochemical
[3] = tested on: BL6 cells (substrains of B16 mouse melanoma cells); assay type: in vivo
Method: The experiment was carried out by the same method as that described in International Publication WO 2004/060398. That is, after subcutaneously inoculating 1×10^5 BL6 cells (substrains of B16 mouse melanoma cells) to a planter of each 4-week-old C57BL/6 mouse, the mice were classified into two groups.
(1) MI-22 administration group: a group of mice subjected to intraperitoneal injection of MI-22 (10 mg) dissolved in olive oil (10 mL) so as to be 0.01 mL per 1 g of the weight of a mouse, once a day (about 0.2 mL per administration) on consecutive days
(2) Nontreatment (Nt) group: a group of mice subjected to no drug administration/treatment by injection.
This treatment was carried out on consecutive days from the next day of the BL6 cells inoculation. When tumors that had formed at the inoculation sites grew to have diameters of about 7 mm, the legs with the tumors were removed by amputation at the knee joints. Then the above-mentioned treatment was carried out for another two days after the amputation. Thereafter the mice were fed without being treated. Four weeks after the amputations at the knee joints, the mice were euthanized, and metastasized tubercles that had formed at the pleura surface in the left and right lungs (the number of foci that metastasized to the lungs) were counted visually. An evaluation was made using 15 mice per each group.

Az521 cells [4] = test: Cancer growth inhibition (antitumor effect), Az521 cells implanted subcutaneously in nude mice; assay type: in vivo, mouse
Method: Az521 cells, which were human gastric cancer cells, were implanted subcutaneously into the back of each nude mouse. Then the cancer growth inhibitory effect (antitumor effect) provided by MI-22 peritoneal administration was examined. More specifically, 1-2×10^5 Az521 cells were injected subcutaneously into the back of each 4-week-old BALB/c nude mouse (nu/nu). Three days before the subcutaneous implantation, 0.1 mL of a solution containing MI-22 (10 mg) dissolved in olive oil (10 mL) was injected intraperitoneally. After the subcutaneous implantation, MI-22 was administered intraperitoneally in the same manner twice a week. For the control mice group, no drug administration/treatment by injection was carried out.
The sizes of tumors formed after the subcutaneous implantation were observed, and then the antitumor effect of MI-22 was evaluated with the weight of the tumors being measured over time. The results are shown in the graph in FIG. 7. The vertical axis indicates the weight (mg) of tumors, and the horizontal axis indicates the number of days after the subcutaneous implantation. The average values of six tumors are shown with respect to three nude mice.

[5] = HeLa-Cx26, 20 μM, dye-transfer assay

## CCCCCCCC/C=C\CCCCCCCC(=O)NCCCNC(=O)CCCCCCC/C=C\CCCCCCCC [MI-45, N^1-[(Z)-3-Octadec-9-enoylaminopropyl]-(Z)-9octadecenamide]
Rat connexin 43 (Cx43)
  connexin 43 inhibitory activity: no connexin 43 inhibitory activity; also recorded: hardly inhibited the function of connexin 43
Rat connexin 26 (Cx26); [5]
  connexin 26 inhibitory activity: strong connexin 26 inhibitory activity; also recorded: strong connexin 26 inhibitory activities

## CCCCCCCC/C=C\CCCCCCC(CCCCCC(CCCCCC/C=C\CCCCCCCC)C(=O)N(CC)CC)C(=O)N(CC)CC (stereo not drawn) [MI-39, N^1,N^1,N^9,N^9-Tetraethyl-2,8-di[(Z)-7-hexadecenyl]nonanediamide]
Rat connexin 43 (Cx43)
  connexin 43 inhibitory activity: no connexin 43 inhibitory activity; also recorded: hardly inhibited the function of connexin 43
Rat connexin 26 (Cx26); [5]
  connexin 26 inhibitory activity: strong connexin 26 inhibitory activity; also recorded: strong connexin 26 inhibitory activities

## CCCCCCCC[C@H]1O[C@H]1CCCCCCCC(=O)NCCCCN(CCCNC(=O)CCCCCCC[C@@H]1O[C@@H]1CCCCCCCC)C(=O)CCCCCCC[C@@H]1O[C@@H]1CCCCCCCC (relative stereo) [MI-51, N^1-{3-[8-{(2S*,3R*)-3-Octyl-oxiranyl}-octanoyl]-N-[4-{8[(2S*,3R*)-3-octyl-oxiranyl]-octanoylamino}-butyl]-aminopropyl}-{8-(2S*,3R*)-3-octyl-oxiranyl}octanamide]
Rat connexin 26 (Cx26); HeLa-Cx26, 20 μM, visual observation
  connexin 26 inhibitory activity as compared to the control by visual observation: found to have a connexin 26 inhibitory activity

## CCCCCCCC/C=C\CCCCCCC(CCCC(CCCCCC/C=C\CCCCCCCC)C(=O)N(CC)CC)C(=O)N(CC)CC (stereo not drawn) [MI-22, N^1,N^1,N^7,N^7-Tetraethyl-2,6-di[(Z)-7-hexadecenyl]-heptanediamide]
Az521 cells [1]
  cytotoxicity (cell growth inhibitory potential), number of cells vs control: no significant difference between MI-22 and control; also recorded: not found
Rat connexin 43 (Cx43)
  connexin 43 inhibitory activity: no connexin 43 inhibitory activity; also recorded: hardly inhibited the function of connexin 43; also recorded: no effect of inhibiting connexin 43 was found
Rat connexin 43 (Cx43); HeLa-Cx43, final concentration 20 μM, FIG. 3
  GJIC score obtained through connexin 43: almost the same as that of a control
[2]
  solubility in an organic solvent: dissolves well in an organic solvent
Rat connexin 26 (Cx26); [5]
  connexin 26 inhibitory activity: strong connexin 26 inhibitory activity; also recorded: strong connexin 26 inhibitory activities
Rat connexin 26 (Cx26); HeLa-Cx26, final concentration 20 μM, dye-transfer assay, FIG. 3
  GJIC score obtained through connexin 26: ≤ 2
[3]; C57BL/6 mice, intraperitoneal once a day
  spontaneous metastasis of cancer vs nontreatment (Nt) group, result in words: inhibited/suppressed spontaneous metastasis of cancer conspicuously
[3]; C57BL/6 mice, intraperitoneal once a day, 4 weeks after amputation, FIG. 4
  decrease of the number of metastatic foci in the lungs vs nontreatment (Nt) group: 80%
[3]; of 15 mice per group, FIG. 5 (Nt group: eight)
  number of mice with lungs with slight spontaneous metastasis: six
[3]; of 15 mice per group, FIG. 5 (Nt group: five)
  number of mice with lungs with considerable spontaneous metastasis: two
[3]; of 15 mice per group, FIG. 5 (Nt group: two)
  number of mice with lungs with no spontaneous metastasis of cancer: seven
Az521 cells [4]; BALB/c nude mice, intraperitoneal twice a week, FIG. 7
  growth of tumors (weight of tumors) vs control mice group: suppressed conspicuously
Az521 cells [4]; nude mice, intraperitoneal, FIG. 8
  increase in the volume of tumors vs nontreatment mice group (NT): suppressed conspicuously
